From PubChem BioAssay (NCI)
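All cell lines were grown in 96-well plates and treated with compound for 48 hours. GI50 = concentration required for 50% inhibition of growth. TGI marks complete inhibition of growth.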

How the values were obtained:
Experiment in all cases: NCI-60 cell line screen, 48 h
MOLT-4 leukemia = test system: MOLT-4 leukemia
HCT-15 colon = test system: HCT-15 colon
NCI-H226 lung = test system: NCI-H226 lung
CAKI-1 renal = test system: CAKI-1 renal
HT29 colon = test system: HT29 colon
NCI-H460 lung = test system: NCI-H460 lung
BT-549 breast = test system: BT-549 breast
ACHN renal = test system: ACHN renal
SR leukemia = test system: SR leukemia
M14 melanoma = test system: M14 melanoma
OVCAR-8 ovarian = test system: OVCAR-8 ovarian
786-0 renal = test system: 786-0 renal
DU-145 prostate = test system: DU-145 prostate
SK-OV-3 ovarian = test system: SK-OV-3 ovarian
TK-10 renal = test system: TK-10 renal
SF-268 CNS = test system: SF-268 CNS
OVCAR-3 ovarian = test system: OVCAR-3 ovarian
MALME-3M melanoma = test system: MALME-3M melanoma
NCI-H23 lung = test system: NCI-H23 lung
U251 CNS = test system: U251 CNS
HOP-92 NSCLC = test system: HOP-92 NSCLC
RPMI-8226 leukemia = test system: RPMI-8226 leukemia
COLO 205 colon = test system: COLO 205 colon
HS 578T breast = test system: HS 578T breast
T-47D breast = test system: T-47D breast
MDA-MB-435 = test system: MDA-MB-435
HCT-116 colon = test system: HCT-116 colon
SNB-19 CNS = test system: SNB-19 CNS
HOP-62 NSCLC = test system: HOP-62 NSCLC
SN12C renal = test system: SN12C renal
SK-MEL-5 melanoma = test system: SK-MEL-5 melanoma
NCI/ADR-RES ovarian = test system: NCI/ADR-RES ovarian
KM12 colon = test system: KM12 colon
SF-539 CNS = test system: SF-539 CNS
HCC-2998 colon = test system: HCC-2998 colon
EKVX NSCLC = test system: EKVX NSCLC
A498 renal = test system: A498 renal
K-562 leukemia = test system: K-562 leukemia
SF-295 CNS = test system: SF-295 CNS
OVCAR-4 ovarian = test system: OVCAR-4 ovarian
MDA-MB-231 breast = test system: MDA-MB-231 breast
UACC-257 melanoma = test system: UACC-257 melanoma
OVCAR-5 ovarian = test system: OVCAR-5 ovarian
NCI-H522 lung = test system: NCI-H522 lung
UACC-62 melanoma = test system: UACC-62 melanoma
MCF7 breast = test system: MCF7 breast
IGROV1 ovarian = test system: IGROV1 ovarian
SNB-75 CNS = test system: SNB-75 CNS
A549 NSCLC = test system: A549 NSCLC
SW-620 colon = test system: SW-620 colon
PC-3 prostate = test system: PC-3 prostate
HL-60(TB) leukemia = test system: HL-60(TB) leukemia
SK-MEL-2 melanoma = test system: SK-MEL-2 melanoma
SK-MEL-28 melanoma = test system: SK-MEL-28 melanoma

For `COc1cc(/C=C\c2cc(/C=C\c3ccc(O)c(OC)c3)n(C(=O)Nc3ccc(C(F)(F)F)cc3)n2)ccc1O`, which GI50 (MOLT-4 leukemia) is on record?
The GI50 was 2.73 µM.

And the TGI (MOLT-4 leukemia)?
Its TGI is 20 µM.

What about the GI50 (HCT-15 colon) of the same compound?
Its GI50 is 2.69 µM.

And the TGI (HCT-15 colon)?
Its TGI is 9.63 µM.

What about the GI50 (NCI-H226 lung) of the same compound?
The GI50 was 7.29 µM.

What about the TGI (NCI-H226 lung) of the same compound?
The TGI was 27.6 µM.

What about the GI50 (CAKI-1 renal) of the same compound?
Its GI50 is 3.02 µM.

And the TGI (CAKI-1 renal)?
The TGI was 12.7 µM.

And the GI50 (HT29 colon)?
Its GI50 is 2.02 µM.

And the TGI (HT29 colon)?
The TGI was 4.13 µM.

What about the GI50 (NCI-H460 lung) of the same compound?
Its GI50 is 3.22 µM.

What about the TGI (NCI-H460 lung) of the same compound?
The TGI was 9.95 µM.

And the GI50 (BT-549 breast)?
The GI50 was 1.96 µM.

And the TGI (BT-549 breast)?
The TGI was 3.67 µM.

What about the GI50 (ACHN renal) of the same compound?
The GI50 was 2.48 µM.

And the TGI (ACHN renal)?
The TGI was 7.08 µM.

And the GI50 (SR leukemia)?
Its GI50 is 1.48 µM.

And the TGI (SR leukemia)?
Its TGI is > 100 µM.

What about the GI50 (M14 melanoma) of the same compound?
The GI50 was 1.94 µM.

And the TGI (M14 melanoma)?
Its TGI is 4.08 µM.

What about the GI50 (OVCAR-8 ovarian) of the same compound?
The GI50 was 3.33 µM.

What about the TGI (OVCAR-8 ovarian) of the same compound?
The TGI was > 100 µM.

What about the GI50 (786-0 renal) of the same compound?
Its GI50 is 2.42 µM.

And the TGI (786-0 renal)?
Its TGI is 7.52 µM.

And the GI50 (DU-145 prostate)?
Its GI50 is 3.67 µM.

And the TGI (DU-145 prostate)?
The TGI was 13 µM.

And the GI50 (SK-OV-3 ovarian)?
The GI50 was 4.02 µM.

And the TGI (SK-OV-3 ovarian)?
The TGI was 66.7 µM.

What about the GI50 (TK-10 renal) of the same compound?
The GI50 was 4.13 µM.

What about the TGI (TK-10 renal) of the same compound?
The TGI was 14.8 µM.

What about the GI50 (SF-268 CNS) of the same compound?
Its GI50 is 2.8 µM.

What about the TGI (SF-268 CNS) of the same compound?
Its TGI is 15.4 µM.

What about the GI50 (OVCAR-3 ovarian) of the same compound?
Its GI50 is 3.41 µM.

And the TGI (OVCAR-3 ovarian)?
Its TGI is 26.7 µM.

What about the GI50 (MALME-3M melanoma) of the same compound?
Its GI50 is 2.89 µM.

What about the TGI (MALME-3M melanoma) of the same compound?
The TGI was 8.4 µM.

What about the GI50 (NCI-H23 lung) of the same compound?
Its GI50 is 2.13 µM.

What about the TGI (NCI-H23 lung) of the same compound?
The TGI was 6.48 µM.

And the GI50 (U251 CNS)?
The GI50 was 2.49 µM.

And the TGI (U251 CNS)?
The TGI was 6.86 µM.

What about the GI50 (HOP-92 NSCLC) of the same compound?
Its GI50 is 2.35 µM.

What about the TGI (HOP-92 NSCLC) of the same compound?
Its TGI is 6.79 µM.

And the GI50 (RPMI-8226 leukemia)?
Its GI50 is 2.09 µM.

And the TGI (RPMI-8226 leukemia)?
Its TGI is 6.59 µM.

What about the GI50 (COLO 205 colon) of the same compound?
The GI50 was 2.05 µM.

What about the TGI (COLO 205 colon) of the same compound?
Its TGI is 4.5 µM.

What about the GI50 (HS 578T breast) of the same compound?
Its GI50 is 5.1 µM.

What about the TGI (HS 578T breast) of the same compound?
Its TGI is 60.6 µM.

What about the GI50 (T-47D breast) of the same compound?
The GI50 was 2.81 µM.

And the TGI (T-47D breast)?
Its TGI is 39 µM.

What about the GI50 (MDA-MB-435) of the same compound?
Its GI50 is 2.35 µM.

And the TGI (MDA-MB-435)?
Its TGI is 7.06 µM.

And the GI50 (HCT-116 colon)?
Its GI50 is 1.51 µM.

And the TGI (HCT-116 colon)?
Its TGI is 2.94 µM.

And the GI50 (SNB-19 CNS)?
Its GI50 is 3.16 µM.

What about the TGI (SNB-19 CNS) of the same compound?
The TGI was 11.2 µM.

And the GI50 (HOP-62 NSCLC)?
The GI50 was 3.6 µM.

What about the TGI (HOP-62 NSCLC) of the same compound?
The TGI was 16.2 µM.

And the GI50 (SN12C renal)?
Its GI50 is 2.73 µM.

What about the TGI (SN12C renal) of the same compound?
The TGI was 9.9 µM.

And the GI50 (SK-MEL-5 melanoma)?
Its GI50 is 2.27 µM.

And the TGI (SK-MEL-5 melanoma)?
The TGI was 6.89 µM.

What about the GI50 (NCI/ADR-RES ovarian) of the same compound?
Its GI50 is 3.51 µM.

And the TGI (NCI/ADR-RES ovarian)?
Its TGI is > 100 µM.

What about the GI50 (KM12 colon) of the same compound?
The GI50 was 2.33 µM.

And the TGI (KM12 colon)?
The TGI was 5.59 µM.

And the GI50 (SF-539 CNS)?
The GI50 was 2.37 µM.

And the TGI (SF-539 CNS)?
The TGI was 7.45 µM.

What about the GI50 (HCC-2998 colon) of the same compound?
The GI50 was 2.04 µM.

And the TGI (HCC-2998 colon)?
The TGI was 3.82 µM.

And the GI50 (EKVX NSCLC)?
Its GI50 is 3.22 µM.

What about the TGI (EKVX NSCLC) of the same compound?
Its TGI is 38.4 µM.

And the GI50 (A498 renal)?
Its GI50 is 5.81 µM.

And the TGI (A498 renal)?
The TGI was 20.6 µM.

And the GI50 (K-562 leukemia)?
The GI50 was 2.53 µM.

And the TGI (K-562 leukemia)?
Its TGI is > 100 µM.

What about the GI50 (SF-295 CNS) of the same compound?
Its GI50 is 2.89 µM.

And the TGI (SF-295 CNS)?
The TGI was 9.85 µM.

What about the GI50 (OVCAR-4 ovarian) of the same compound?
The GI50 was 3.51 µM.

What about the TGI (OVCAR-4 ovarian) of the same compound?
The TGI was 52.7 µM.

What about the GI50 (MDA-MB-231 breast) of the same compound?
Its GI50 is 3.06 µM.

And the TGI (MDA-MB-231 breast)?
Its TGI is 9.62 µM.

And the GI50 (UACC-257 melanoma)?
Its GI50 is 4.01 µM.

What about the TGI (UACC-257 melanoma) of the same compound?
The TGI was 14 µM.

What about the GI50 (OVCAR-5 ovarian) of the same compound?
The GI50 was 2.16 µM.

And the TGI (OVCAR-5 ovarian)?
The TGI was 4.97 µM.

And the GI50 (NCI-H522 lung)?
The GI50 was 1.78 µM.

What about the TGI (NCI-H522 lung) of the same compound?
Its TGI is 4.65 µM.

What about the GI50 (UACC-62 melanoma) of the same compound?
The GI50 was 2.02 µM.

What about the TGI (UACC-62 melanoma) of the same compound?
The TGI was 4.76 µM.

And the GI50 (MCF7 breast)?
Its GI50 is 1.97 µM.

What about the TGI (MCF7 breast) of the same compound?
Its TGI is 10.7 µM.

What about the GI50 (IGROV1 ovarian) of the same compound?
Its GI50 is 2.77 µM.

What about the TGI (IGROV1 ovarian) of the same compound?
Its TGI is 11.6 µM.

And the GI50 (SNB-75 CNS)?
The GI50 was 2.99 µM.

What about the TGI (SNB-75 CNS) of the same compound?
The TGI was 66 µM.

What about the GI50 (A549 NSCLC) of the same compound?
The GI50 was 4.11 µM.

And the TGI (A549 NSCLC)?
Its TGI is > 100 µM.

And the GI50 (SW-620 colon)?
The GI50 was 2.56 µM.

And the TGI (SW-620 colon)?
The TGI was 5.9 µM.

And the GI50 (PC-3 prostate)?
Its GI50 is 3.21 µM.

And the TGI (PC-3 prostate)?
The TGI was 13.5 µM.

And the GI50 (HL-60(TB) leukemia)?
Its GI50 is 1.98 µM.

What about the TGI (HL-60(TB) leukemia) of the same compound?
The TGI was 6.45 µM.

What about the GI50 (SK-MEL-2 melanoma) of the same compound?
The GI50 was 3.15 µM.

And the TGI (SK-MEL-2 melanoma)?
The TGI was 17.3 µM.

What about the GI50 (SK-MEL-28 melanoma) of the same compound?
The GI50 was 2.19 µM.

What about the TGI (SK-MEL-28 melanoma) of the same compound?
Its TGI is 5.9 µM.
